For series [1] the following is noted: treatment of patients; cited from earlier work.
For series [2], the system named is tumors. The note with it: cited from earlier work.
Series [3] deals with L-1210/0 murine leukemia cells. Put plainly: In vitro cytotoxic activity (ID50, 50% inhibition of cell growth), L-1210/0. The note with it: Table III; dissolved in 10% DMSO; read-out: ID50 L-1210/O. In kind it is cell-based. An excerpt: (§1) where py=pyridine; quin=quinoline; isoquin=isoquinoline; Meim=methylimidazole. […] Complexes were all dissolved in 10% DMSO.
Series [4] deals with L-1210/DDP murine leukemia cells. Put plainly: In vitro cytotoxic activity (ID50), L-1210/DDP (resistant to cisplatin). The conditions noted are these: Table III; dissolved in 10% DMSO. It counts as cell-based.
Excerpt: as §1

In series [5] the test system is DNA. The note with it: background, cited from earlier work.
Series [6] deals with L-1210/dach murine leukemia cells. Put plainly: In vitro cytotoxic activity (ID50), L-1210/dach. In kind it is cell-based. The note with it: Table II; solvent H2O, 10% DMSO or DMF per complex.
Experimental: The tests were carried out in vitro according to the procedures outlined by M. P. Hacker et al in Cancer Research, 1985, 45, 4748.
Series [7] has as its system L-1210/0 murine leukemia cells. Put plainly: In vitro cytotoxic activity (ID50, 50% inhibition of cell growth), L-1210/0. In kind it is cell-based. The note with it: Table II; solvent H2O, 10% DMSO or DMF per complex.
The subject of series [8] is L-1210/DDP murine leukemia cells. Put plainly: In vitro cytotoxic activity (ID50), L-1210/DDP (resistant to cisplatin). The conditions noted are these: Table II; solvent H2O, 10% DMSO or DMF per complex. It counts as cell-based.
The test system of series [9] is L-1210 murine leukemia cell lines.
Experimental: The biological assays were performed as previously described by method of Hacker et al. Cancer Research, 1985, 45, 4748. Complexes were all dissolved in 10% DMSO.

The text below walks through data of patent publication US5770591A, “Bis-platinum complexes as chemotherapeutic agents” (The University of Vermont and State Agricultural College, priority 1994, dated 1998).

Read-outs that look alike come from different tables or passages of the source.

As for `N.N.O=C([O-])C1(C(=O)[O-])CCC1.[Pt+2]` [Carboplatin, [Pt(NH3)2 (CBDCA)]], the Nephrotoxicity entry in series [1] is given as “marked reduction in the nephrotoxic effects”. For the same compound, the “Antitumor activity / cytotoxic effect” value in [2] (background) is on record as “effective against the same spectrum of carcinomas as cisplatin”.
Take “[PtCl2 (iso-quinoline)(DMSO)] [iso-quin DMSO trans]”: the IC50 in [3] was 2750 nM; in series [4], 1170 nM.
With `N.N.[Cl][Pt+2][Cl]` [NH3 NH3 trans, trans-[PtCl2 (NH3)2]], the IC50 in series [3] is more than 20000 nM; in series [4], more than 50000 nM. For the same compound, the “Formation of 1,2-intrastrand crosslink” value in series [5] is “cannot form the 1,2-intrastrand crosslink”. Besides, the DNA binding result is “do bind to DNA” in series [5] (listed as trans-DDP) and “bind avidly to the DNA molecule” in [5] (listed as trans-[Pt(NH3)2 Cl2 ]). For the same compound, the “Antitumor activity / cytotoxic effect” value is listed as “do not exhibit antitumor activity” in series [2] (background, listed as trans-DDP) and “no cytotoxic effect” in series [2] (background, listed as trans-[Pt(NH3)2 Cl2 ]).
As for “[PtCl2 (quinoline)(DMSO)] [quin DMSO trans]”, the results for the IC50 in series [3] and in series [4] were 400 nM and 1570 nM, respectively.
On to “trans-[PtCl2 (pyridine)(DMSO)] [py DMSO trans]”, for which the IC50 in [3] was determined as 6620 nM; in [4], 5670 nM.
Consider `N.N.N.[Cl][Pt+]` [[Pt(NH3)3 Cl]^+], for which the values for the DNA binding result in [5] and in series [5] (listed as [(Pt(NH3)3 Cl]^+)) were “bind avidly to the DNA molecule” and “do bind to DNA”, respectively. In addition, the “Formation of 1,2-intrastrand crosslink” value in series [5] is on record as “cannot form the 1,2-intrastrand crosslink”. In addition, the “Antitumor activity / cytotoxic effect” value in series [2] (background) is recorded as “no cytotoxic effect”; in [2] (background, listed as [(Pt(NH3)3 Cl]^+)), “do not exhibit antitumor activity”.
As for `N.N.NCCCCN.[Cl][Pt][Cl].[Cl][Pt][Cl]` [BisPt4, [{cis-PtCl2 (NH3)}2 (H2 N(CH2)4 NH2)]], the figures for the IC50 in series [6], in series [7] and in series [8] were 336 nM, 280 nM and 2190 nM, respectively.
As for `[Cl][Pt][Cl].c1ccncc1.c1ccncc1` [py py trans, trans-[PtCl2 (pyridine)2]], the IC50 in [3] was found to be 610 nM; in series [4], 800 nM. For the same compound, the “Cytotoxic activity (in words)” value in [9] was “as cytotoxic as cisplatin”. Further, in [9] (Table III in vitro data), the “Cross-resistance with the parent cisplatin” value was “non-cross-resistant with the parent cisplatin”.
For `N.N.NCCCCN.O=C1CC(=O)[O][Pt][O]1.O=C1CC(=O)[O][Pt][O]1` [BisPtmal, [{cis-Pt(mal)(NH3)}2 (H2 N(CH2)4 NH2)]], the IC50 in [6] worked out at 2550 nM; in series [7] it was 930 nM; in series [8], 5030 nM.
Turning to [Pt(dien)Cl]Cl, the IC50 in series [6], in series [7] and in [8] was more than 20000 nM each time. Moreover, in [9], the “Cytotoxic activity (in words)” value is “totally inactive”. In addition, in series [5], the DNA binding result is “do bind to DNA”. In [2], the “Antitumor activity / cytotoxic effect” value was “do not exhibit antitumor activity”.
`N.N.NCCCCN.[Cl][Pt][Cl].[Cl][Pt][Cl]` [Example 3, [{cis-PtCl2 (NH3)}H2 N(CH2)4 NH2 {trans-PtCl2 (NH3)}]]: the IC50 in [6] turned out to be 2600 nM; in [7] it was 760 nM; in series [8], 3360 nM.
With `N.N.[Cl][Pt][Cl]` [NH3 NH3 cis, cis-[PtCl2 (NH3)2]], the IC50 was 200 nM in series [3] and 8000 nM in series [4].
Consider `N.N.N.N.NCCCCN.[Cl-].[Cl-].[Cl][Pt+].[Cl][Pt+]` [Example 1, [{trans-PtCl(NH3)2}2 H2 N(CH2)4 NH2]Cl2], for which the IC50 came out at 5400 nM in series [6], 3400 nM in series [7] and 900 nM in series [8]. In series [9], the “Cytotoxic activity (in words)” value is recorded as “highly active cytotoxic agents”.
As for `Cl.Cl.[Pt].c1ccncc1.c1ccncc1` [py py cis], the figures for the IC50 in series [3] and in [4] were 8960 nM and 12500 nM, respectively.
